Measured values as given in ChEMBL document CHEMBL6096723, “Discovery of novel capsaicin analogs as TRPV1 inhibitors for the treatment of idiopathic pulmonary fibrosis” (Eur J Med Chem, 2025).
Calls of active or inactive are those of the source. The calls are words filed in the database; no cut-off is given here.

Experiments:
[1] = Cmax in Sprague-Dawley rat at 50 mg/kg, po measured upto 4 hrs by UPLC-MS/MS analysis; type: ADME, organism-based; conditions: in vivo
Mus musculus [2] = assay: Anti-fibrotic activity against bleomycin-induced pulmonary fibrosis mouse model assessed as increase in lung compliance at 10 to 20 mg/kg, ip administered every alternative day for 8 to 21 days after modeling; type: functional, organism-based; conditions: dose 10-20 mg/kg, time 8-21 day
NIH3T3 [3] = assay: Antifibrotic activity in mouse NIH3T3 cells assessed as decrease in TRPV1 expression measured after 48 hrs incubation by Western blotting analysis; type: functional, cell-based; conditions: dose 1-10 µM
[4] = Acute toxicity in Kunming male mouse assessed as Alanine aminotransferase (ALT) level at 180 mg/kg, ip measured after 14 days (reference value: 55.3 U/L); type: organism-based; conditions: in vivo, 336 h, time 14 day
[5] = Acute toxicity in Kunming male mouse assessed as Urea level at 180 mg/kg, ip measured after 14 days (reference value: 6.54 mmol/L); type: organism-based; conditions: in vivo, 336 h, time 14 day
[6] = MRT(0 to infinity) in Sprague-Dawley rat at 50 mg/kg, iv measured upto 4 hrs by UPLC-MS/MS analysis; type: ADME, organism-based; conditions: in vivo
[7] = Clearance in Sprague-Dawley rat at 50 mg/kg, ip measured upto 4 hrs by UPLC-MS/MS analysis; type: ADME, organism-based; conditions: in vivo
[8] = Bioavailability in Sprague-Dawley rat at 50 mg/kg, ip measured upto 4 hrs by UPLC-MS/MS analysis; type: ADME, organism-based; conditions: in vivo
[9] = Acute toxicity in Kunming female mouse assessed as Total bilirubin (T-Bil) level at 180 mg/kg, ip measured after 14 days (reference value: 10.79 micromol/L); type: organism-based; conditions: in vivo, 336 h, time 14 day
[10] = Acute toxicity in Kunming male mouse assessed as Creatine kinase (CK) level at 180 mg/kg, ip measured after 14 days (reference value: 710.6 U/L); type: organism-based; conditions: in vivo, 336 h, time 14 day
NIH3T3 [11] = assay: Inhibition of TGFbeta1-induced proliferation of mouse NIH3T3 cells assessed as colony formation at 10 uM measured after 7 to 14 days by Crystal violet staining based assay; type: functional, cell-based; conditions: time 7-14 day
[12] = Half life in Sprague-Dawley rat at 50 mg/kg, ip measured upto 4 hrs by UPLC-MS/MS analysis; type: ADME, organism-based; conditions: in vivo
[13] = Acute toxicity in Kunming male mouse assessed as Uric acid (UA) level at 180 mg/kg, ip measured after 14 days (reference value: 264.8 micromol/L); type: organism-based; conditions: in vivo, 336 h, time 14 day
[14] = Toxicity in bleomycin-induced pulmonary fibrosis mouse model assessed as body weight change at 10 to 20 mg/kg, ip administered every alternative day for 8 to 21 days after modeling; type: organism-based; conditions: in vivo, dose lower 10 mg/kg, time lower 8 day, dose upper 20 mg/kg, time upper 21 day
[15] = AUC(0 to t) in Sprague-Dawley rat at 50 mg/kg, iv measured upto 4 hrs by UPLC-MS/MS analysis; type: ADME, organism-based; conditions: in vivo
[16] = MRT(0 to infinity) in Sprague-Dawley rat at 50 mg/kg, po measured upto 4 hrs by UPLC-MS/MS analysis; type: ADME, organism-based; conditions: in vivo
L929 = assay: Anti-migratory activity in mouse L929 cells assessed as inhibition of TGFbeta1-induced migration at 10 uM measured after 24 hrs by Wound healing assay; type: functional, cell-based
NIH3T3 [17] = assay: Inhibition of TGFbeta-induced p38 phosphorylation in mouse NIH3T3 cells at 1 to 10 uM by Western blot analysis; type: functional, cell-based; conditions: dose 1-10 µM
[18] = Half life in Sprague-Dawley rat at 50 mg/kg, po measured upto 4 hrs by UPLC-MS/MS analysis; type: ADME, organism-based; conditions: in vivo
[19] = AUMC(0 to infinity) in Sprague-Dawley rat at 50 mg/kg, ip measured upto 4 hrs by UPLC-MS/MS analysis; type: ADME, organism-based; conditions: in vivo
Mus musculus [20] = assay: Anti-fibrotic activity against bleomycin-induced pulmonary fibrosis mouse model assessed as decrease in hydroxyproline level in lung tissue at 10 to 20 mg/kg, ip administered every alternative day for 8 to 21 days after modeling […]; type: functional, organism-based; conditions: dose 10-20 mg/kg, time 8-21 day
Rattus norvegicus = assay: Cz in Sprague-Dawley rat at 50 mg/kg, ip measured upto 4 hrs by UPLC-MS/MS analysis; type: ADME, organism-based; conditions: in vivo
[21] = Half life in Sprague-Dawley rat at 50 mg/kg, iv measured upto 4 hrs by UPLC-MS/MS analysis; type: ADME, organism-based; conditions: in vivo
[22] = Acute toxicity in Kunming male mouse assessed as Albumin (ALB) level at 180 mg/kg, ip measured after 14 days (reference value: 32.6 g/L); type: organism-based; conditions: in vivo, 336 h, time 14 day
Mus musculus [23] = assay: Anti-pulmonary fibrotic activity against bleomycin-induced pulmonary fibrosis mouse model assessed as inhibition of collagen I expression in lung tissue at 10 to 20 mg/kg, ip administered every alternative day for 8 to 21 days after modeling by immunohistochemical staining based assay; type: functional, organism-based; conditions: dose 10-20 mg/kg, time 8-21 day
[24] = Acute toxicity in Kunming mouse assessed as organ lesions in lung at 180 mg/kg, ip measured after 14 days by H and E staining based assay; type: organism-based; conditions: in vivo, 336 h, time 14 day
[25] = VRT(0 to t) in Sprague-Dawley rat at 50 mg/kg, iv measured upto 4 hrs by UPLC-MS/MS analysis; type: ADME, organism-based; conditions: in vivo
[26] = Cmax in Sprague-Dawley rat at 50 mg/kg, ip measured upto 4 hrs by UPLC-MS/MS analysis; type: ADME, organism-based; conditions: in vivo
[27] = AUC(0 to infinity) in Sprague-Dawley rat at 50 mg/kg, ip measured upto 4 hrs by UPLC-MS/MS analysis; type: ADME, organism-based; conditions: in vivo
[28] = VRT(0 to infinity) in Sprague-Dawley rat at 50 mg/kg, ip measured upto 4 hrs by UPLC-MS/MS analysis; type: ADME, organism-based; conditions: in vivo
[29] = Acute toxicity in Kunming mouse assessed as organ lesions in kidney at 180 mg/kg, ip measured after 14 days by H and E staining based assay; type: organism-based; conditions: in vivo, 336 h, time 14 day
[30] = MRT(0 to t) in Sprague-Dawley rat at 50 mg/kg, ip measured upto 4 hrs by UPLC-MS/MS analysis; type: ADME, organism-based; conditions: in vivo
Mus musculus [31] = assay: Anti-pulmonary fibrotic activity against bleomycin induced pulmonary fibrosis mouse model assessed as reduction in pulmonary fibrosis lesions at 10 to 20 mg/kg, ip administered every alternative day for 8 to 21 days after modeling; type: functional, organism-based; conditions: dose 10-20 mg/kg, time 8-21 day
[32] = AUMC(0 to infinity) in Sprague-Dawley rat at 50 mg/kg, po measured upto 4 hrs by UPLC-MS/MS analysis; type: ADME, organism-based; conditions: in vivo
[33] = Acute toxicity in Kunming female mouse assessed as Lactate dehydrogenase (LDH) level at 180 mg/kg, ip measured after 14 days (reference value: 1952.7 U/L); type: organism-based; conditions: in vivo, 336 h, time 14 day
[34] = Acute toxicity in Kunming female mouse assessed as Albumin (ALB) level at 180 mg/kg, ip measured after 14 days (reference value: 35.8 g/L); type: organism-based; conditions: in vivo, 336 h, time 14 day
[35] = AUMC(0 to infinity) in Sprague-Dawley rat at 50 mg/kg, iv measured upto 4 hrs by UPLC-MS/MS analysis; type: ADME, organism-based; conditions: in vivo
Mus musculus [36] = assay: Anti-pulmonary fibrotic activity against bleomycin-induced pulmonary fibrosis mouse model assessed as reduction in BLM-induced […] expression in lung tissue at 10 to 20 mg/kg, ip administered every alternative day for 8 to 21 days after modeling; type: functional, organism-based; conditions: dose 10-20 mg/kg, time 8-21 day
[37] = AUC(0 to t) in Sprague-Dawley rat at 50 mg/kg, po measured upto 4 hrs by UPLC-MS/MS analysis; type: ADME, organism-based; conditions: in vivo

## O=C(/C=C/c1ccc(O)c(O)c1)CCCCc1ccccc1
[1]
  Cmax: 48.9 ng/mL
Mus musculus [2]
  Activity: Active
NIH3T3 [3]
  Activity: Dose-dependent-effect; Compound More Potent Than Nintedanib
[4]
  Activity: 34.5 U/L
[5]
  Activity: 9.56 mmol/L
[6]
  MRT inf: 47.6 min
[7]
  CL: 305.45 mL/min/kg
[8]
  bioavailability: 29.6%
[9]
  Activity: 18.82 µmol/L
[10]
  Activity: 710.6 U/L
NIH3T3 [11]
  inhibition: Active
[12]
  half-life: 21 min
[13]
  Activity: 325.4 µmol/L
[14]
  Activity: Non-toxic
[15]
  AUC(0-t) at 4 h: 2640 ng·h/mL
[16]
  MRT inf: 81 min
L929
  Activity: Active
NIH3T3 [17]
  inhibition: Active
[18]
  half-life: 51 min
[19]
  AUMC: 628.01 ug/L.hr
Mus musculus [20]
  Activity: Active
Rattus norvegicus
  Cz: 0.74 µg/L
[21]
  half-life: 39.4 min
[22]
  Activity: 31.2 g/L
Mus musculus [23]
  Activity: Active
[24]
  Activity: Non-toxic
[25]
  VRT(t): 0.569 hr2
[26]
  Cmax: 1490 ng/mL
[27]
  AUC: 1095.38 ng·h/mL
[28]
  VRT: 0.72 hr2
[29]
  Activity: Non-toxic
[30]
  MRT last at 4 h: 31.2 min
Mus musculus [31]
  Activity: Active
[32]
  AUMC: 138.748 ug/L.hr
[33]
  Activity: 2798.2 U/L
[34]
  Activity: 33.2 g/L
[35]
  AUMC: 2122.825 ug/L.hr
Mus musculus [36]
  Activity: Active
[37]
  AUC(0-t) at 4 h: 99 ng·h/mL
